The test system of this assay is 3T3-L1 mouse adipocyte cells. In words: Adipogenesis inhibition, Oil Red-O staining of adipocytes. The following applies: Table 1, 3T3-L1 mouse adipocytes, OD 492 nm, read-out: Adipogenesis inhibitory activity (IC50). Format: cell-based. An excerpt:
Adipogenesis, or the development of fat cells from preadipocytes, has been one of the most intensely studied models for obesity. A fat cell develops as internally produced lipid droplets coalesce into a single large mass. The in vitro adipogenesis inhibitory model can recapitulate most of the critical aspects of fat cell formation in vivo.
A common assay to measure adipocyte differentiation in cell culture is with the dye Oil Red-O, which is a lipid-soluble red dye. Since terminal differentiation of adipocytes is accompanied by the accumulation of great amounts of lipids in large cytoplasmic vesicles, a strong, bright, staining of the cytoplasm with this dye is a reliable indicator of adipocyte differentiation.
3T3-L1 mouse adipocyte cells are seeded at a density of 5000 cell/200 μl of adipocyte induction medium in a 96 well plate. After 48 hrs, sample is added. After 72 hrs, the medium is changed to adipocyte progression medium along with the sample. The medium is similarly changed after another 48 hours. The plates are washed gently after 48 hrs with 100 μl of PBS. […] The OD reading is taken at 492 nm in microplate reader.
The results are expressed as IC50 values using Graphpad prism software. The percentage of inhibition of adipogenesis is calculated as follows,
[formula] Where C—absorbance due to adipogenesis in untreated cells • T—absorbance due to adipogenesis in sample treated cells

≈ marks a conversion by molar mass, not a printed value.

Turning to `C=C(C)[C@@H](CC=C(C)C)C[C@@]12C[C@@H](CC=C(C)C)C(C)(C)[C@@](CC=C(C)C)(C(=O)C(C(=O)c3ccc(O)c(O)c3)=C1O)C2=O` [Garcinol], the IC50 is 0.2 µg/mL (≈ 0.332 µM). Next, `COc1cc(C=Cc2ccc(O)cc2)cc(OC)c1` [Pterostilbene, 3,5-dimethoxy-4′-hydroxystilbene]: 13.3 µg/mL (≈ 52 µM).

In general, IC50 refers to the concentration that inhibits the measured activity by half.

For the origin of these results see patent US8329743B2, “Compositions and its use in treating obesity or inducing weight loss” (Sami Labs Limited, priority 2011, dated 2012).
